# Assay results taken from patent US11554105B2, “Combinations of artemisinins, BCL-2 inhibitors, and kinase inhibitors for cancer treatment” (UNIVERSITY OF MARYLAND, BALTIMORE, priority 2018, dated 2023).
# Entries after “also recorded” stand apart in the source; their conditions may differ. Like-named read-outs stand apart in the source and are kept apart here. Marks after values point to notes of the source that are not given here.
# What was measured:
# [1] = test system: MOLM14, KOPN8 and RCH-ACV cell lines; assay: Kinase inhibitor drug combination screen, summary over the three cell lines; conditions: >10% growth inhibition over the Bliss prediction; of three cell lines
# Description: (§2) Plates (3×384-well per set) contained 7 graded concentrations of each drug at 2× final concentration in culture media in 25 μl/well. […] Cells were plated such that each well contained 2500 cells (MOLM14) or 5000 cells (KOPN8 and RCH-ACV). […] Each plate contained two positive control wells used for background subtraction. Each plate also contained 45 wells without any drug. The background-subtracted absorbance for each well was normalized to the average of the no-drug wells from the corresponding vehicle plate.
# (§3) Hits were ranked by the observed inhibition over the Bliss independence prediction.
# (§4) Combinations with positive values for this Bliss difference were considered synergistic, values near zero, additive, and negative values, antagonistic.
# KOPN8 = assay: Kinase inhibitor drug combination screen (MTS, Bliss-independence analysis); type: cell-based, human; conditions: Drug 1 combined with ART-838 (Drug 2) at its approximate IC50, 48 h, average over seven Drug 1 concentrations
# RCH-ACV = assay: as above; conditions: Drug 1 combined with AS (Drug 2) at its approximate IC50, 48 h, average over seven Drug 1 concentrations
# Description: as §2, §3, §4
# human AML cell lines = assay: In vitro efficacies of artemisinin derivatives against human AML cell lines; type: cell-based
# Description: Cell lines were seeded in 96-well tissue culture plates at 10^4 cells per well (myeloid leukemia lines) or 2×10^4 cells per well (lymphoid leukemia lines) in culture medium, followed by addition of drugs at the indicated concentrations. 2-4 wells per plate containing media-only were included for background subtraction. Peripheral wells were filled with sterile water to minimize the effects of evaporation.
# A novel trioxane dimer allyloxime-631 (ART631) has been designed to further extend in vivo T1/2 without sacrificing antimalarial activity.
# [2] = test system: MV4:11 or MOLM14 AML xenografts; assay: Luc-labelled AML xenografts treated with VEN, SOR and ART838 or ART631 (5-cycle MTD regimen); type: in vivo, NRG mice; conditions: two AML xenograft models; single agents and in combination with VEN+SOR
# From the text: FIG. 25A-25C. […] FIG. 25A) MTD cyclic drug treatment schema.
# Outcome metrics included 1) maximal in vivo antileukemic efficacy 3 days (d) after completion of the 1st treatment cycle (FIG. 25B); 2) survival (FIG. 25C); and 3) toxicity.
# in vivo = assay: in vivo
# From the text: (§1) FIG. 24. Concentration-time profile for 2C-ARTs with PK parameters.
# FIG. 25A-25C. […] NOD-Rag1^nullIL2rg^null (NRG) mice were transplanted IV with Luc-labelled MV4; 11 cells on d10. […] FIG. 25A) MTD cyclic drug treatment schema.
# [3] = PO qd×5 at MTD; 15 mg/kg ART631, 50 mg/kg ART838
# Description: as §1
# Preliminary pharmacokinetic (PK) studies were designed to compare the PK of ART631 at steady-state at its maximum tolerated dose (MTD) (FIG. 24). […] ART631 plasma concentrations exceeded 50 nM for ˜8 h.
# [4] = cited from earlier work
# [5] = test system: mitochondrial superoxide in MOLM14 cells; assay: Mitochondrial superoxide (MitoSOX Red, flow cytometry); type: cell-based, human; conditions: 16 h, 2.25× approximate 48 h IC50, MitoSox MFI
# Description: FIGS. 4A-4D. Effects of ART-838- and AS-containing drug combinations on MOLM14 growth and superoxide generation. […] CIs were computed as described above. CI<1 indicates synergy, CI=1, additivity, CI>1, antagonism. […] Cells were then loaded with 5 μM MitoSox for 30 min, washed, and analyzed by flow cytometry for MitoSox fluorescence (indicating mitochondrial superoxide) in the FL2 channel. Mean fluorescence intensity (MFI) was normalized to that of vehicle control (0.5% DMSO) with no pretreatment (100%, lower dotted lines). Upper dotted lines show MFI of ART-838- or AS-treated cells. Error bars represent the SEM of three independent experiments.
# Cells were pretreated with NAC, Tiron, DFO, or vehicle then treated with AS, ART-838, or vehicle, as described above, then following a 16-hour drug treatment, cells were loaded with 5 μM MitoSOX Red (Invitrogen, Carlsbad, Calif.) for 30 minutes at 37° C. with 5% CO2, then analyzed using the FL2 channel of an Accuri C6 flow cytometer.
# As both ART-838 and AS increased mitochondrial superoxide, and many antineoplastic drugs induce ROS generation, mitochondrial superoxide levels of MOLM14 cells treated with each of the above six antileukemic drugs were evaluated, alone and in combination with ART-838 or AS. All six drugs induced mitochondrial superoxide, although to a much lesser extent than did ART-838 (FIG. 4B) or AS (FIG. 4D).
# [6] = test system: human leukemia cell lines; conditions: more potent than AS; cited from earlier work
Compound,No. Cell Lines synergistically inhibited by drug 1 combined with AS and/or ART-838 [1],fractional inhibition over Bliss prediction (KOPN8),fractional inhibition over Bliss prediction (RCH-ACV),"IC50 (human AML cell lines; median over the human AML cell lines tested (11 for AS and ART838, 4 for ART631), read-out: IC50 median)","IC50 (human AML cell lines; range over the human AML cell lines tested (11 for AS and ART838, 4 for ART631), read-out: IC50 range)","tolerability and antileukemic efficacy, ART631 compared with ART838 [2]","previously established MTD, PO×5 d schedule (in vivo; 5 d-on/9 d-off, gavage)","MTD regimen, repeated dose (in vivo; qd×5 PO)","exposure, oral ART631 compared with ART838 [3]",in vivo T1/2 [4],"mitochondrial superoxide generation, drug alone [5]",in vitro potency relative to AS [6]
COc1cc(Oc2ccnc3cc(OC)c(OC)cc23)ccc1NC(=O)NC(C)c1nccs1 (stereo not drawn) [KI20227],2/3**,KOPN8 (0.12),RCH-ACV (0.14),,,,,,,,,
"C[C@@H]1CCC2[C@@H](C)[C@@H](CC(COP(=O)(Oc3ccccc3)Oc3ccccc3)C[C@H]3O[C@@H]4O[C@@]5(C)CCC6[C@H](C)CCC([C@H]3C)[C@]64OO5)O[C@@H]3O[C@@]4(C)CCC1[C@@]23OO4 (stereo partly drawn) [ART-838, artemisinin-derived trioxane diphenylphosphate dimer 838]",,,,38 nM,10 to 547 nM,closely similar tolerability and antileukemic efficacy,50 mg/kg/day,50 mg/kg,similar,3 h,induced superoxide to greater levels than AS; also recorded: induced mitochondrial superoxide generation,88 fold
